Assay results: patent US9623062B2, “Anti-ageing activity of camphor in fibroblast cell line” (Jeju National University Industryacademic Cooperation …, priority 2014, dated 2017)

Experiments:
[1] = system: fibroblasts; experiment: ROS production by DCFH-DA flow cytometry in fibroblasts; format: cell-based, human; details: for increase of ROS production compared to non-treated cells: fibroblasts, 24 hours after treatment, FIG. 4A
Protocol: To analyze the reactive oxygen species (ROS), the cells were seeded in 60 mm culture dishes at a density of 2×10^4 cells/mL, and then treated with 10% chamomile hydrosol for 0, 6, 12, and 24 hours. The cells were stained with 2′-7′-dichlorodihydrofluorescein diacetate (DCFH-DA) for 15 minutes, collected in a 15 mL tube, and then washed with PBS. The cells were re-suspended in 500 μl of PBS, and measured for a level of ROS. For the cell cycle analysis, the treated cells were harvested and fixed overnight in 70% ethanol at 4° C. After 24 hours, the cells were rehydrated in 2 mM EDTA-BPS with RNase A (25 ng/ml), and stained with PI (40 μg/ml). All the analyses were performed using a FACS Caliber flow cytometer (BD Biosciences), and each sample were analyzed by counting 10,000 cells.

[2] = system: fibroblast cells (SA-β-gal); experiment: Senescence-associated β-galactosidase activity in fibroblasts; format: cell-based, human
Protocol: Fibroblast cells were incubated in 6-well plate at a density of 1×10^4 cells/well. Then the culture supernatants were removed and the cells were treated 72 h with only camphor (260 μM) or H2O2 600 μM and 800 μM or co-treated camphor and H2O2 in fresh media; ethanol containing media and media only were used as negative controls. In some experiments, H2O2 was pretreated on fibroblast cells 72 h and replaced with or without camphor treatment (260 μM) 48 h. After treatment, cells were washed twice with PBS and fixed 10 minutes in 4% formaldehyde. Then, this was followed by washing 3 times with wash solution (100 mM Na2HPO4 set to pH 6 with 100 mM Citric Acid). Cells was incubated overnight at 37° C. in freshly made staining solution (5 mM K3Fe(CN)6, 5 mM K4Fe(CN)6, 2 mM MgCl2, 150 mM NaCl, 40 mM Na2HPO4, 1 mg/mL bromo-chloro-indolyl-galactopyranoside (X-Gal), set to pH 6 with 100 mM citric acid). Next day, cells was washed the staining solution with PBS and taken picture by microscope and β-galactosidase-positive cell number ratio was calculated.

[3] = system: Primary dermal fibroblast cells; experiment: MTT cell viability of fibroblasts; format: cell-based, human
Protocol: Fresh human foreskin specimens were obtained from 8 donors aged from 6 to 12 years, who received a routine circumcision procedure of Jeju National University Hospital, Korea. After being digested with 0.1% […] (Worthington Biochemical Corporation, Lakewood, N.J.) at 4° C. overnight, the epidermal layers were removed, and the remaining dermal parts were further digested with 0.1% collagenase I (Worthington) at 37° C. for another 4 h. The digested cells were then passed through a […] cell strainer (BD Biosciences, Mississauga, ON, Canada), centrifuged, and resuspended in high-glucose DMEM (Gibco, Invitrogen, Carlsbad, Calif.), supplemented with 10% FBS (Gibco, Invitrogen, Carlsbad, Calif.), 100 U/ml penicillin, and 100 μg/ml streptomycin (all from PAA Laboratories, Linz, Austria). Cells were seeded on tissue culture plates at 1×10^3 cells/cm2, and maintained at 37° C. with 5% CO2. After 24 h, the plates were washed with PBS to remove residual non-adherent cells. The resulting adherent cells were grown to confluence within 7 days. Primary dermal fibroblast (2×10^4 cells/ml) cells were plated in 96-well plates in 200 μl of medium containing 10% FBS. After 24 h, the cells were treated with different concentrations of chamomile hydrosol or camphor. […] Cell viability was determined from the absorbance at 570 nm, measured using a Sunrise microplate reader (Tecan, Salzburg, Austria). […]

[4] = system: PI3K/AKT and MAPK signaling cascades; experiment: Western blot of PI3K/AKT/ERK/4E-BP1 phosphorylation in fibroblasts; format: cell-based, human
Protocol: (§1) After 0, 6, 12, 24 h treatment, cells were collected and lysed in lysis buffer (100 mM Tris-Hcl [pH 8], 250 mM NaCl, 0.5% Nonidet P-40, and 1× protease inhibitor cocktail) and sonicated few times then kept on ice for 30 min. The cell lysates were centrifuged at 13,000 rpm for 30 min at 4° C. The supernatant were collected and determined the concentration by BCA™ Protein assay (Pierce, Rockford, Ill.). For detecting MMP 1 and collagen I, and collagen III, we collected the media and centrifuging 400×g for 1 h at 4° C. by using Amicon Ultra 10K and determined the concentration by Bradford assay. Aliquots of the lysated were separated by 10-15% SDS-PAGE, and transferred to PVDF membranes using a glycine transfer buffer (192 mM glycine, 25 mM Tris-HCl [pH 8.8], and 20% [v/v] methanol). After blocking with Skim milk 5% overnight at 4° C., the membrane were incubated with primary antibodies for 1 h RT or overnight at 4° C. and then for 1 h with secondary antibodies. Primary antibodies were diluted at ratio 1:1000 whereas the anti-β-actin primary and secondary antibodies (horseradish peroxidase-conjugated goat anti-mouse IgG) (Vector Laboratories, Burlingame, Calif.) were diluted at ratio 1:10,000. Protein bands were detected using the WEST-ZOL® plus Western Blot Detection System (iNtRON, Gyeonggi-do, Korea).

[5] = molecular target: T1, porcine pancreatic elastase (PPE (Type IV)) (Sus scrofa, UniProt P00772); experiment: Elastase assay; format: biochemical; details: camphor 0-3200 μM, n-Suc-(Ala)3-nitroanilide substrate, FIG. 5B
T1 construct: purchased Sigma
T1 sequence (P00772 27-266): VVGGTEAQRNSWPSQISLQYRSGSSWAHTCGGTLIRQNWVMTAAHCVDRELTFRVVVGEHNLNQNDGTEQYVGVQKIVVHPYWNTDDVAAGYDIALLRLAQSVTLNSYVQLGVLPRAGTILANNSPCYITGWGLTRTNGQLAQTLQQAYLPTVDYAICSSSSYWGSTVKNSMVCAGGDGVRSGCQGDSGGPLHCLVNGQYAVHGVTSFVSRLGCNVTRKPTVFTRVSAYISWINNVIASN
Protocol: The inhibition of different concentrations of camphor on porcine pancreatic elastase (PPE (Type IV), Sigma) activity was examined using n-Suc-(Ala)3-nitroanilide as the substrate, and the release of nitroaniline was measured at 410 nm. The reaction was carried out in a 200 mM Tris-HCl buffer (pH 8.0) containing 0.8 mM N-Suc-(Ala)3-nitroanilide and 5 μg/mL elastase. Different concentrations of camphor (0-3200 μM) were added to the reaction mixture to reach a final volume of 320 μl, and elastase inhibition was assessed in 96 well-plate reader at 25° C. The reaction mixture was pre-incubated for 10 minutes before addition of the substrate. The change in absorbance was measured at 410 nm using a 96-well reader. The percentage of elastase activities was calculated by the following equation: Enzyme activity (%)=100−[(B−A)/A]×100]
wherein A represents an absorbance at 410 nm without camphor, and B represents an absorbance at 410 nm with camphor.

[6] = system: Fibroblast cells; experiment: Total collagen assay (Sircol); format: cell-based, human; details: cells treated with camphor vs non-treated control, FIG. 5C
Protocol: Total collagen was quantified in culture media using the Sircol Soluble Collagen Assay kit (Biocolor, Newtownabbey, Northern Ireland) by quantitative dye-binding method, according to the manufacturer's instruction. Fibroblast cells were seeded in 6-well culture plates at density 2×10^5 cells/well with 2 ml/well media with or without camphor (260 μM) and incubated for different time points (6 h, 12 h, 24 h). After treatment, 200 μl sample medium of each group was transferred to a 1.5 ml centrifuge tube and 1 ml Sircol dye reagent was added into each tube. The mixed contents were incubated at room temperature for 30 min. Then the tubes were centrifuged at 10000 g for 10 minutes. The supernatants were drained off and discarded. The remaining pellets were mixed with 1 ml Alkali reagent and gently mixed until the pellets dissolved completely. The solutions were transferred to a 96-well plate and read absorbance at 540 nm. A standard curve was made simultaneously by standard collagen stock solution (0.5 mg/m1).

[7] = system: collagen types I, III and IV and collagenase MMP1; experiment: Western blot of collagen types and MMP1; format: cell-based, human; details: camphor treatment
Protocol: as §1

Row | SMILES | increase of ROS production compared to non-treated cells [1] | SA-β-gal-positive cells ([2]; H2O2 alone vs control, FIG. 5A) | cell viabilities enhanced by camphor when ROS scavenged by NAC ([3]; NAC pre-treatment, then camphor, FIG. 4C) | phosphorylation of PI3K, AKT, 4EBP1, and ERK increased by camphor, after NAC pre-treatment ([4]; NAC pre-treatment plus camphor, FIG. 4D) | camphor-induced ROS production after NAC pre-treatment ([1]; fibroblasts pre-treated with NAC, then camphor 24 hours, FIG. 4B) | fibroblast viability ([3]; camphor from 32.25 μM to 260 μM, FIG. 3A) | phosphorylated forms of 4E-BP1 ([4]; fibroblasts treated with camphor, FIG. 3B) | phosphorylation of PI3K, AKT, and ERK ([4]; fibroblasts treated with camphor, time-dependent, FIG. 3B) | reversal of cellular senescence ([2]; cells pre-treated with H2O2 at 800 μM, then camphor) | SA-β-gal-positive cells ([2]; co-treatment of camphor with 600 and 800 μM H2O2, 72 h) | number of senescent cells ([2]; pre-treated with 600 μM H2O2 for 3 days, then camphor for 2 days) | elastase activity inhibition [5] | total volume of collagen [6] | expression of MMP1 [7] | volume of collagen types III and IV ([7]; FIG. 5D)
1 | OO [H2O2, reference compound] | 53% | dramatically induced SA-β-gal-positive cells | – | – | – | – | – | – | – | – | – | – | – | – | –
2 | CC(=O)N[C@@H](CS)C(=O)O [NAC, N-acetyl-L-cysteine, reference compound] | – | – | decreased | reduced the phosphorylation | decreased the induced ROS production | – | – | – | – | – | – | – | – | – | –
3 | CC1(C)C2CC[C@@]1(C)C(=O)C2 [camphor, (1R)-1,7,7-Trimethylbicyclo[2.2.1]heptan-2-one] | approximately 13% | – | – | – | – | increased the fibroblast viability | observed | increased the phosphorylation | did not significantly reverse the cellular senescence | reduced the SA-β-gal-positive cells | significantly decreased | inhibited the elastase activity in a concentration-dependent manner | increased | no change | increased
